Reference: EP0312000B1, “Aminomethyl oxooxazolidinyl aroylbenzene derivatives useful as antibacterial agents” (THE DU PONT MERCK PHARMACEUTICAL COMPANY, priority 1987, dated 1989)
Values after ≈ are worked out from the molar mass of the structure shown. Where two headings read alike, the source gives them in different places.

Assays:
[1] = test system: Staphylococcus Aureus; assay: In vivo activity in an acute lethal mouse infection model; details: 168 h, mice infected intraperitoneally with S. aureus, dosed at one hour and four hours post-infection, survivors on seventh day
Protocol: The in vivo potency of these compounds is exemplified by the data summarized in Table V. Determinations of in vivo efficacy are performed by inoculating mice intraperitoneally with cultures of the infecting organism diluted to produce 100% mortality in control animals within twenty-four hours. The culture of S. aureus used to infect the animals was diluted to the required bacterial density using 5% aqueous hog gastric mucin. The compounds are dissolved or suspended in 0.25% aqueous Methocel® (Methocel®: Hydroxypropyl Methylcellulose, E15 Premium, Dow Chemical Company) for oral administration or sterile distilled water containing 5% dimethylsulfoxide (Fisher Scientific Company, Fairlawn, NJ) for subcutaneous administration. The mice are dosed at one hour and at four hours post-infection. Mortality is recorded daily until test termination seven days post infection. The number of survivors in each treatment group on the seventh day after infection is used in the calculation of the ED₅₀, the dose of compound that protects 50% of the mice (Litchfield, J. T. and Wildoxon. A simplified method for evaluating dose-effect experiments. J. Pharmacol Exp. Ther., 96:99-113, 1949).

[2] = test system: Escherichia coli; assay: In vitro broth microdilution minimal inhibitory concentration (MIC), Mueller-Hinton broth; format: cell-based; details: 24-hour MIC, standard microdilution method, read-out: Minimum Inhibitory Concentration Escherichia coli
Text: (§1) A standard microdilution method (National Committee for Clinical Standards. Tentative standard M7-T. Standard methods for dilution antimicrobial susceptibility tests for bacteria that grow aerobically. National Committee for Clinical Laboratory Standards, Villanova, PA. 1982) with Mueller-Hinton broth is used to determine the 24-hour minimal inhibitory concentrations (MIC's) for test strains of Staphylococcus aureus and Escherichia coli.

[3] = test system: Staphylococcus aureus; assay: as above; format: cell-based; details: 24-hour MIC, standard microdilution method, read-out: Minimum Inhibitory Concentration Staphylococcus aureus
Text: as §1

[4] = oral in 0.25% aqueous Methocel, read-out: ED₅₀ Oral Administration
[5] = sc, subcutaneous in sterile distilled water containing 5% dimethylsulfoxide, read-out: ED₅₀ Subcutaneous Administration

## CC(=O)NC[C@H]1CN(c2ccc(C(=O)c3ccc([N+](=O)[O-])cc3)cc2)C(=O)O1 [Example 9, (ℓ)-N-[3-[4-(4-nitrobenzoyl)phenyl]-2-oxooxazolidin-5-ylmethyl]acetamide]
[1]; [4]
  ED50: > 90 mg/kg
[1]; [5]
  ED50: > 90 mg/kg
[2]
  MIC: > 128 µg/mL
[3]
  MIC: 1 µg/mL (≈ 2.61 µM)

## CC(=O)NC[C@H]1CN(c2ccc(C(=O)c3ccccc3)cc2)C(=O)O1 [Example 2]
[1]; [4]
  ED50: 47 mg/kg
[1]; [5]
  ED50: 60 mg/kg
[2]
  MIC: > 128 µg/mL
[3]
  MIC: 4 µg/mL (≈ 11.8 µM)

## CC(=O)NC[C@H]1CN(c2ccc(C(=O)c3cccc(F)c3)cc2)C(=O)O1 [Example 5]
[1]; [4]
  ED50: 42 mg/kg
[1]; [5]
  ED50: 25 mg/kg
[2]
  MIC: > 128 µg/mL
[3]
  MIC: 8 µg/mL (≈ 22.4 µM)

## CC(=O)NC[C@H]1CN(c2ccc(C(=O)c3ccc([S+](C)[O-])cc3)cc2)C(=O)O1 (stereo partly drawn) [Example 10]
[1]; [4]
  ED50: > 90 mg/kg
[1]; [5]
  ED50: > 90 mg/kg
[2]
  MIC: > 128 µg/mL
[3]
  MIC: 16 µg/mL (≈ 40 µM)

## CC(=O)NC[C@H]1CN(c2ccc(C(=O)c3cccnc3)cc2)C(=O)O1 [Example 15]
[1]; [4]
  ED50: > 90 mg/kg
[1]; [5]
  ED50: 59 mg/kg
[2]
  MIC: > 128 µg/mL
[3]
  MIC: 8 µg/mL (≈ 23.6 µM)

## CSc1ccc(C(=O)c2ccc(N3C[C@H](CNC(C)=O)OC3=O)cc2)cc1 [Example 8]
[1]; [4]
  ED50: > 90 mg/kg
[1]; [5]
  ED50: > 90 mg/kg
[2]
  MIC: > 128 µg/mL
[3]
  MIC: 4 µg/mL (≈ 10.4 µM)

## CC(=O)NC[C@H]1CN(c2ccc(C(=O)c3ccc(F)cc3)cc2)C(=O)O1 [Example 1, (ℓ)-N-[3-[4-(4-fluorobenzoyl)-phenyl]-2-oxooxazolidin-5-ylmethyl]acetamide]
[1]; [4]
  ED50: 40 mg/kg
[1]; [5]
  ED50: 20 mg/kg
[2]
  MIC: > 128 µg/mL
[3]
  MIC: 4 µg/mL (≈ 11.2 µM)

## CC(=O)NC[C@H]1CN(c2ccc(C(=O)c3ccc(S(C)(=O)=O)cc3)cc2)C(=O)O1 [Example 11]
[1]; [4]
  ED50: > 90 mg/kg
[1]; [5]
  ED50: > 90 mg/kg
[2]
  MIC: > 128 µg/mL
[3]
  MIC: 4 µg/mL (≈ 9.6 µM)

## CC(=O)NC[C@H]1CN(c2ccc(C(O)c3ccccc3)cc2)C(=O)O1 (stereo partly drawn) [Example 20]
[1]; [4]
  ED50: 65 mg/kg
[1]; [5]
  ED50: 52 mg/kg
[2]
  MIC: > 128 µg/mL
[3]
  MIC: 32 µg/mL (≈ 94 µM)

## COc1ccc(C(=O)c2ccc(N3C[C@H](CNC(C)=O)OC3=O)cc2)cc1 [Example 3]
[1]; [4]
  ED50: 41 mg/kg
[1]; [5]
  ED50: 15 mg/kg
[2]
  MIC: > 128 µg/mL
[3]
  MIC: 4 µg/mL (≈ 10.9 µM)

## CC(=O)NC[C@H]1CN(c2ccc(C(=O)c3ccc(F)cc3F)cc2)C(=O)O1 [Example 6, (ℓ)-N-[3-[4-(2,4-difluorobenzoyl)phenyl]-2-oxooxazolidin-5-ylmethyl]acetamide]
[1]; [4]
  ED50: 30 mg/kg
[1]; [5]
  ED50: 26 mg/kg
[2]
  MIC: > 128 µg/mL
[3]
  MIC: 1 µg/mL (≈ 2.67 µM)

## COc1cc(Cl)ccc1C(=O)c1ccc(N2C[C@H](CNC(C)=O)OC2=O)cc1 [Example 7]
[1]; [4]
  ED50: > 120 mg/kg
[1]; [5]
  ED50: > 120 mg/kg
[2]
  MIC: > 128 µg/mL
[3]
  MIC: 32 µg/mL (≈ 79.4 µM)
